PubChem BioAssay AID192 (DTP/NCI, 2004)
Several values for one entry are separate records, joined by “and”; a condition that tells them apart may be missing. Identical values can stand only once. Toxic doses and inconclusive results are not listed.

System: BDF1 mice, B16 melanoma ip, median survival T/C
Experiment: NCI In Vivo Anticancer Drug Screen. Data for tumor model B16 Melanoma (intraperitoneal) in B6D2F1 (BDF1) mice
Conditions: endpoint: median survival time, higher = longer survival
How it was run: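 Transplantable tumor model; survival or tumor size measured; reported as T/C, treated over vehicle control.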

`O=C(O)c1c2c(nc3ccccc13)Cc1ccccc1-2` was tested, and the T/C (dose: 3.12 mg/kg/injection, schedule: Q01DX009 (ip), vehicle: Klucel (hydroxypropylcellulose) (HPC)) was 100 % of control, the T/C (dose: 6.25 mg/kg/injection, schedule: Q01DX009 (ip), vehicle: Klucel (hydroxypropylcellulose) (HPC)) was 96 % of control and 103 % of control and the T/C (dose: 6.25 mg/kg/injection, schedule: Q01DX009 (ip), vehicle: water) was 89 % of control. The T/C (dose: 12.5 mg/kg/injection, schedule: Q01DX009 (ip), vehicle: Klucel (hydroxypropylcellulose) (HPC)) was 98 % of control and 103 % of control and 119 % of control, the T/C (dose: 12.5 mg/kg/injection, schedule: Q01DX009 (ip), vehicle: water) was 96 % of control and 108 % of control and the T/C (dose: 25.0 mg/kg/injection, schedule: Q01DX009 (ip), vehicle: water) was 112 % of control and 114 % of control. The T/C (dose: 30.0 mg/kg/injection, schedule: Q03HX008 (ip), vehicle: water) was 96 % of control, the T/C (dose: 30.0 mg/kg/injection, schedule: Q03HX016 (ip), vehicle: water) was 107 % of control and the T/C (dose: 30.0 mg/kg/injection, schedule: Q03HX024 (ip), vehicle: water) was 101 % of control. For the same compound, the T/C (dose: 44.0 mg/kg/injection, schedule: Q01DX005 (iv), vehicle: water) was 102 % of control, the T/C (dose: 44.0 mg/kg/injection, schedule: Q01DX009 (ip), vehicle: water) was 120 % of control and the T/C (dose: 44.0 mg/kg/injection, schedule: Q01DX009 (sc), vehicle: water) was 102 % of control. The T/C (dose: 44.0 mg/kg/injection, schedule: Q03HX008 (ip), vehicle: water) was 118 % of control, the T/C (dose: 44.0 mg/kg/injection, schedule: Q03HX016 (ip), vehicle: water) was 102 % of control and the T/C (dose: 44.0 mg/kg/injection, schedule: Q03HX024 (ip), vehicle: water) was 118 % of control. The T/C (dose: 67.0 mg/kg/injection, schedule: Q01DX001 (ip), vehicle: water) was 107 % of control, the T/C (dose: 67.0 mg/kg/injection, schedule: Q01DX005 (iv), vehicle: water) was 92 % of control and the T/C (dose: 67.0 mg/kg/injection, schedule: Q01DX009 (ip), vehicle: water) was 169 % of control. For the same compound, the T/C (dose: 67.0 mg/kg/injection, schedule: Q01DX009 (oral), vehicle: water) was 99 % of control, the T/C (dose: 67.0 mg/kg/injection, schedule: Q01DX009 (sc), vehicle: water) was 108 % of control and the T/C (dose: 67.0 mg/kg/injection, schedule: Q03HX008 (ip), vehicle: water) was 106 % of control. For the same compound, the T/C (dose: 67.0 mg/kg/injection, schedule: Q03HX016 (ip), vehicle: water) was 104 % of control, the T/C (dose: 67.0 mg/kg/injection, schedule: Q03HX024 (ip), vehicle: water) was 112 % of control and the T/C (dose: 67.0 mg/kg/injection, schedule: Q04DX003 (ip), vehicle: water) was 116 % of control. For the same compound, the T/C (dose: 67.0 mg/kg/injection, schedule: Q08DX002 (ip), vehicle: water) was 106 % of control, the T/C (dose: 89.0 mg/kg/injection, schedule: Q01DX001 (ip), vehicle: Klucel (hydroxypropylcellulose) (HPC)) was 106 % of control and the T/C (dose: 100.0 mg/kg/injection, schedule: Q01DX001 (ip), vehicle: water) was 102 % of control. For the same compound, the T/C (dose: 100.0 mg/kg/injection, schedule: Q01DX001 (oral), vehicle: water) was 101 % of control, the T/C (dose: 100.0 mg/kg/injection, schedule: Q01DX005 (iv), vehicle: water) was 100 % of control and the T/C (dose: 100.0 mg/kg/injection, schedule: Q01DX009 (oral), vehicle: water) was 94 % of control. The T/C (dose: 100.0 mg/kg/injection, schedule: Q01DX009 (sc), vehicle: water) was 108 % of control, the T/C (dose: 100.0 mg/kg/injection, schedule: Q03HX008 (ip), vehicle: water) was 120 % of control and the T/C (dose: 100.0 mg/kg/injection, schedule: Q03HX016 (ip), vehicle: water) was 118 % of control. For the same compound, the T/C (dose: 100.0 mg/kg/injection, schedule: Q03HX024 (ip), vehicle: water) was 112 % of control, the T/C (dose: 100.0 mg/kg/injection, schedule: Q04DX003 (ip), vehicle: water) was 110 % of control and the T/C (dose: 100.0 mg/kg/injection, schedule: Q08DX002 (ip), vehicle: water) was 113 % of control. For the same compound, the T/C (dose: 133.0 mg/kg/injection, schedule: Q01DX009 (ip), vehicle: Klucel (hydroxypropylcellulose) (HPC)) was 156 % of control, the T/C (dose: 133.0 mg/kg/injection, schedule: Q04DX003 (ip), vehicle: Klucel (hydroxypropylcellulose) (HPC)) was 124 % of control and the T/C (dose: 150.0 mg/kg/injection, schedule: Q01DX001 (ip), vehicle: water) was 98 % of control and 104 % of control. For the same compound, the T/C (dose: 150.0 mg/kg/injection, schedule: Q01DX001 (oral), vehicle: water) was 98 % of control, the T/C (dose: 150.0 mg/kg/injection, schedule: Q01DX005 (iv), vehicle: water) was 102 % of control and the T/C (dose: 150.0 mg/kg/injection, schedule: Q01DX009 (oral), vehicle: water) was 90 % of control. The T/C (dose: 150.0 mg/kg/injection, schedule: Q01DX009 (sc), vehicle: water) was 115 % of control, the T/C (dose: 150.0 mg/kg/injection, schedule: Q03HX008 (ip), vehicle: water) was 121 % of control and the T/C (dose: 150.0 mg/kg/injection, schedule: Q04DX003 (ip), vehicle: water) was 108 % of control and 122 % of control. The T/C (dose: 150.0 mg/kg/injection, schedule: Q08DX002 (ip), vehicle: water) was 121 % of control, the T/C (dose: 200.0 mg/kg/injection, schedule: Q01DX001 (ip), vehicle: Klucel (hydroxypropylcellulose) (HPC)) was 124 % of control and the T/C (dose: 200.0 mg/kg/injection, schedule: Q01DX009 (ip), vehicle: water) was 152 % of control. For the same compound, the T/C (dose: 225.0 mg/kg/injection, schedule: Q01DX001 (ip), vehicle: water) was 93 % of control and 110 % of control, the T/C (dose: 225.0 mg/kg/injection, schedule: Q01DX001 (oral), vehicle: water) was 94 % of control and the T/C (dose: 225.0 mg/kg/injection, schedule: Q01DX005 (iv), vehicle: water) was 104 % of control. For the same compound, the T/C (dose: 225.0 mg/kg/injection, schedule: Q01DX009 (oral), vehicle: water) was 92 % of control, the T/C (dose: 225.0 mg/kg/injection, schedule: Q01DX009 (sc), vehicle: water) was 104 % of control and the T/C (dose: 225.0 mg/kg/injection, schedule: Q04DX003 (ip), vehicle: water) was 107 % of control and 111 % of control. The T/C (dose: 225.0 mg/kg/injection, schedule: Q08DX002 (ip), vehicle: water) was 111 % of control, the T/C (dose: 337.0 mg/kg/injection, schedule: Q01DX001 (ip), vehicle: water) was 98 % of control and the T/C (dose: 337.0 mg/kg/injection, schedule: Q01DX001 (oral), vehicle: water) was 99 % of control. For the same compound, the T/C (dose: 337.0 mg/kg/injection, schedule: Q01DX009 (oral), vehicle: water) was 97 % of control, the T/C (dose: 337.0 mg/kg/injection, schedule: Q04DX003 (ip), vehicle: water) was 105 % of control and 112 % of control and the T/C (dose: 450.0 mg/kg/injection, schedule: Q01DX001 (ip), vehicle: Klucel (hydroxypropylcellulose) (HPC)) was 111 % of control. For the same compound, the T/C (dose: 506.0 mg/kg/injection, schedule: Q01DX001 (oral), vehicle: water) was 93 % of control.
With `C[N+](C)(C)CCOc1ccc(Cl)cc1` the T/C (dose: 12.5 mg/kg/injection, schedule: Q04DX003 (ip), vehicle: Klucel (hydroxypropylcellulose) (HPC)) was 105 % of control, the T/C (dose: 25.0 mg/kg/injection, schedule: Q04DX003 (ip), vehicle: Klucel (hydroxypropylcellulose) (HPC)) was 107 % of control and the T/C (dose: 50.0 mg/kg/injection, schedule: Q04DX003 (ip), vehicle: Klucel (hydroxypropylcellulose) (HPC)) was 107 % of control. The T/C (dose: 100.0 mg/kg/injection, schedule: Q04DX003 (ip), vehicle: Klucel (hydroxypropylcellulose) (HPC)) was 94 % of control.
For `CCN=NNc1ccc(C)cc1`, the T/C (dose: 3.13 mg/kg/injection, schedule: Q01DX009 (ip), vehicle: saline with Tween-80) was 95 % of control, the T/C (dose: 6.25 mg/kg/injection, schedule: Q01DX009 (ip), vehicle: saline with Tween-80) was 91 % of control and the T/C (dose: 6.25 mg/kg/injection, schedule: Q04DX003 (ip), vehicle: saline with Tween-80) was 94 % of control. The T/C (dose: 12.5 mg/kg/injection, schedule: Q01DX009 (ip), vehicle: saline with Tween-80) was 97 % of control, the T/C (dose: 12.5 mg/kg/injection, schedule: Q04DX003 (ip), vehicle: saline with Tween-80) was 101 % of control and the T/C (dose: 25.0 mg/kg/injection, schedule: Q01DX009 (ip), vehicle: saline with Tween-80) was 91 % of control. The T/C (dose: 25.0 mg/kg/injection, schedule: Q04DX003 (ip), vehicle: saline with Tween-80) was 103 % of control.
`Clc1nnc(Cl)c(Cl)c1Cl` was tested, and the T/C (dose: 0.05 mg/kg/injection, schedule: Q01DX009 (ip), vehicle: saline with Tween-80) was 109 % of control, the T/C (dose: 0.05 mg/kg/injection, schedule: Q04DX003 (ip), vehicle: saline) was 102 % of control and the T/C (dose: 0.1 mg/kg/injection, schedule: Q01DX009 (ip), vehicle: saline with Tween-80) was 100 % of control. For the same compound, the T/C (dose: 0.1 mg/kg/injection, schedule: Q04DX003 (ip), vehicle: saline) was 91 % of control, the T/C (dose: 0.2 mg/kg/injection, schedule: Q01DX009 (ip), vehicle: saline with Tween-80) was 100 % of control and the T/C (dose: 0.2 mg/kg/injection, schedule: Q04DX003 (ip), vehicle: saline) was 89 % of control.
For `Cc1cccc(NC(=O)Nc2ccccc2)c1C`, the T/C (dose: 100.0 mg/kg/injection, schedule: Q01DX009 (ip), vehicle: Klucel (hydroxypropylcellulose) (HPC)) was 100 % of control.
